Legend:
Assay in all cases: Cytokine response, multiplex xMAP
Type in all cases: cell-based, human
Conditions in all cases: 2 µM peptide, 24 h
PBMC = tested on: PBMC
Method: (§1) The acute monocytic leukemia THP-1 cell line (ATCC TIB-202) was cultured in the complete RPMI 1640 medium (Invitrogen) containing 10% FBS, 1× antibiotic-antimycotic solution (Invitrogen), and 0.05 mM β-mercaptoethanol, in the CO2-incubator (5% CO2, 37 °C). THP-1 cells were differentiated into proinflammatory macrophages (MΦ1) according to the previously reported protocol. Primary peripheral blood mononuclear cells (PBMC) collected from a healthy donor were purchased from ATCC (PCS-800-011), thawed, and seeded into a 96-well plate one day prior to the experiment at a density of 2 × 10^5 cells/well. Two different cell subpopulations (monocytes and T-/B-/NK-lymphocytes) were isolated from PBMC based on their adherence ability. Macrophages MΦ1 were washed out and seeded into 96-well plates at a density of 10^5 cells/well one day prior to the experiment. The next day, medium in each well was replaced by a fresh complete RPMI 1640 medium with or without 2 μM of a tested peptide (rumicidin-1 or LL-37). Cell cultures were kept in a CO2-incubator (5% CO2, 37 °C) for 24 h. Culture supernatants were collected 24 h later and stored at −70 °C degrees less than one week prior to the assessment of analytes. 26 analytes were measured at a protein level by multiplex xMAP technology using the MILLIPLEX MAP Human Cytokine/Chemokine Magnetic Bead Immunology Panel kit (HCYTOMAG-60K-27, Merck): eotaxin-1/CCL11, TGFα, GM-CSF, IFNα2, IFNγ, IL-10, IL-12p40, IL-12p70, IL-15, sCD40L, IL-17A, IL-1RA, IL-1α, IL-9, IL-1β, IL-2, IL-3, IL-4, IL-5, IL-6, IL-7, IL-8/CXCL8, IP-10/CXCL10, RANTES/CCL5, TNFα, TNFβ. Multiplex-based assay read-out was performed using the MAGPIX system (Merck) with the xPONENT 4.2 software (Merck) in accordance with the manufacturer’s instruction with overnight incubation of the samples with primary antibodies. The final analysis was carried out with the MILLIPLEX Analyst v5.1 software (Merck). Measurements were performed twice for each sample. The release of the analytes in control and experimental samples were compared by unpaired two-sample t-test using GraphPad Prism v.8.0.1. The p values ≤ 0.05 were considered significant.

T-/B-/NK-lymphocytes = tested on: T-/B-/NK-lymphocytes
Method: as §1

[1] = tested on: macrophages MΦ1 (THP-1 derived)
Method: as §1

For `CC[C@H](C)[C@H](NC(=O)[C@H](CCCCN)NC(=O)[C@H](CCC(=O)O)NC(=O)[C@H](CCCCN)NC(=O)[C@H](CO)NC(=O)[C@H](CCCCN)NC(=O)[C@H](CCCNC(=N)N)NC(=O)[C@H](Cc1ccccc1)NC(=O)[C@H](Cc1ccccc1)NC(=O)[C@H](CC(=O)O)NC(=O)CNC(=O)[C@H](CC(C)C)NC(=O)[C@@H](N)CC(C)C)C(=O)NCC(=O)N[C@@H](CCCCN)C(=O)N[C@@H](CCC(=O)O)C(=O)N[C@@H](Cc1ccccc1)C(=O)N[C@@H](CCCCN)C(=O)N[C@@H](CCCNC(=N)N)C(=O)N[C@H](C(=O)N[C@H](C(=O)N[C@@H](CCC(N)=O)C(=O)N[C@@H](CCCNC(=N)N)C(=O)N[C@H](C(=O)N[C@@H](CCCCN)C(=O)N[C@@H](CC(=O)O)C(=O)N[C@@H](Cc1ccccc1)C(=O)N[C@@H](CC(C)C)C(=O)N[C@@H](CCCNC(=N)N)C(=O)N[C@@H](CC(N)=O)C(=O)N[C@@H](CC(C)C)C(=O)N[C@H](C(=O)N1CCC[C@H]1C(=O)N[C@@H](CCCNC(=N)N)C(=O)N[C@H](C(=O)N[C@@H](CCC(=O)O)C(=O)N[C@@H](CO)C(=O)O)[C@@H](C)O)C(C)C)[C@@H](C)CC)C(C)C)[C@@H](C)CC` [LL-37], the GM-CSF (PBMC) was 0,66 pg/ml, the IFNa2 (PBMC) was 3,72 pg/ml and the IFNg (PBMC) was < 1.31 pg/mL. For the same molecule, the IL-1RA (PBMC) was 62,83 pg/ml, the IL-1a (PBMC) was < 1.13 pg/mL and the IL-1b (PBMC) was < 2.88 pg/mL. The IL-2 (PBMC) was < 2.73 pg/mL, the IL-3 (PBMC) was < 3.02 pg/mL and the IL-4 (PBMC) was 38,61 pg/ml. The IL-5 (PBMC) was < 2.74 pg/mL, the IL-6 (PBMC) was < 2.42 pg/mL and the IL-7 (PBMC) was < 2.06 pg/mL. The IL-8 (PBMC) was 1591 pg/mL, the IL-9 (PBMC) was < 3.08 pg/mL and the IL-10 (PBMC) was < 1.47 pg/mL. For the same molecule, the IL-12p40 (PBMC) was < 3.69 pg/mL, the IL-12p70 (PBMC) was 0,29 pg/ml and the IL-15 (PBMC) was < 2.08 pg/mL. The IL-17A (PBMC) was < 0.94 pg/mL, the IP-10 (PBMC) was 2236 pg/mL and the RANTES (PBMC) was 262,49 pg/ml. For the same molecule, the TGF-a (PBMC) was < 2.64 pg/mL, the TNFa (PBMC) was 15,91 pg/ml and the TNFb (PBMC) was < 2.85 pg/mL. For the same molecule, the sCD40L (PBMC) was 2,84 pg/ml, the Eotaxin (PBMC; supernatant) was 3,21 pg/ml and the GM-CSF (T-/B-/NK-lymphocytes) was 0,66 pg/ml. For the same molecule, the IFNa2 (T-/B-/NK-lymphocytes) was 7,02 pg/ml, the IFNg (T-/B-/NK-lymphocytes) was 1,93 pg/ml and the IL-1RA (T-/B-/NK-lymphocytes) was 6,49 pg/ml. The IL-1a (T-/B-/NK-lymphocytes) was < 1.13 pg/mL, the IL-1b (T-/B-/NK-lymphocytes) was < 2.88 pg/mL and the IL-2 (T-/B-/NK-lymphocytes) was < 2.73 pg/mL. The IL-3 (T-/B-/NK-lymphocytes) was < 3.02 pg/mL, the IL-4 (T-/B-/NK-lymphocytes) was 51,58 pg/ml and the IL-5 (T-/B-/NK-lymphocytes) was < 2.74 pg/mL. The IL-6 (T-/B-/NK-lymphocytes) was < 2.42 pg/mL, the IL-7 (T-/B-/NK-lymphocytes) was < 2.06 pg/mL and the IL-8 (T-/B-/NK-lymphocytes) was 411,17 pg/ml. The IL-9 (T-/B-/NK-lymphocytes) was < 3.08 pg/mL, the IL-10 (T-/B-/NK-lymphocytes) was < 1.47 pg/mL and the IL-12p40 (T-/B-/NK-lymphocytes) was < 3.69 pg/mL. The IL-12p70 (T-/B-/NK-lymphocytes) was 1,03 pg/ml, the IL-15 (T-/B-/NK-lymphocytes) was < 2.08 pg/mL and the IL-17A (T-/B-/NK-lymphocytes) was < 0.94 pg/mL. The IP-10 (T-/B-/NK-lymphocytes) was 120,56 pg/ml, the RANTES (T-/B-/NK-lymphocytes) was 889,61 pg/ml and the TGF-a (T-/B-/NK-lymphocytes) was < 2.64 pg/mL. The TNFa (T-/B-/NK-lymphocytes) was 5,23 pg/ml, the TNFb (T-/B-/NK-lymphocytes) was < 2.85 pg/mL and the sCD40L (T-/B-/NK-lymphocytes) was 3,22 pg/ml. For the same molecule, the GM-CSF [1] was 1,32 pg/ml, the IFNa2 [1] was 4,35 pg/ml and the IFNg [1] was < 1.31 pg/mL. For the same molecule, the IL-1RA [1] was 20,52 pg/ml, the IL-1a [1] was < 1.13 pg/mL and the IL-1b [1] was 10,63 pg/ml. The IL-2 [1] was < 2.73 pg/mL, the IL-3 [1] was < 3.02 pg/mL and the IL-4 [1] was 38,61 pg/ml. The IL-5 [1] was < 2.74 pg/mL, the IL-6 [1] was < 2.42 pg/mL and the IL-7 [1] was < 2.06 pg/mL. The IL-8 [1] was 1188 pg/mL, the IL-9 [1] was < 3.08 pg/mL and the IL-10 [1] was 6,13 pg/ml. The IL-12p40 [1] was < 3.69 pg/mL, the IL-12p70 [1] was 0,58 pg/ml and the IL-15 [1] was 2,42 pg/ml. For the same molecule, the IL-17A [1] was < 0.94 pg/mL, the IP-10 [1] was 282,01 pg/ml and the RANTES [1] was 715,62 pg/ml. The TGF-a [1] was < 2.64 pg/mL, the TNFa [1] was 9,49 pg/ml and the TNFb [1] was < 2.85 pg/mL. For the same molecule, the sCD40L [1] was 3,22 pg/ml.
